Data on two compounds can be found in publication PMC8890542, “Discovery of novel paeonol-based derivatives against skin inflammation in vitro and in vivo” (Journal of Enzyme Inhibition and Medicinal Chemistry, 2022).

Data set [1] deals with JNK. The data set can be described thus: Western blot, SUV-induced JNK phosphorylation in HaCaT cells. It is filed as cell-based, human. To be noted: SUV (40 kJ/m^2) 30 min. As for the experimental part: (§1) HaCaT cells were seeded into 6-well plate with 2 × 10^6 cells per well. After 24 h culture and 12 h starvation, they were stimulated with SUV irradiation. The cells were irritated with 40 KJ/m^2 doses of SUV at 30 min. In order to study the effect of compound B12, the cells were starved in serum-free medium for 12 h, and then pre-treated with compound B12 (2.5, 5, 10 μM) for 6 h before SUV irradiation. Follow the same steps as above to transfer the electrophoretic band to PVDF membrane. All steps were performed in the same way as above except that the types of primary and secondary antibodies were different.
For orientation: A western blot detects proteins with antibodies after separation by electrophoresis.

The subject of the next data set is γ-H2AX. As to the kind of experiment: Western blot, SUV-induced γ-H2AX in HaCaT cells. It is filed as cell-based, human. Conditions: 2.5 μM to 10 μM, 6 h before 40 KJ/m^2 SUV. As for the experimental part: as §1
Another data set concerns iNOS. As to the kind of experiment: Western blot of iNOS in LPS-stimulated RAW264.7 cells. It is filed as cell-based, mouse. Conditions: 2.5, 5, 10 µM, 1 h, LPS 24 h. On the procedure: (§2) RAW264.7 cells were seeded into 6-well plate with 2 × 10^6 cells per well and maintained about 24 h, and then pre-treated with compound B12 (2.5, 5, 10 µM) for 1 h, co-treated with LPS (0.5 µg/mL) for 0.5 h or 24 h. Western blotting assay was performed as the method described previously. Briefly, the cells were lysed in […] RIPA cell lysis buffer (Contains PMSF and phosphatase inhibitors, Beyotime China) and incubated on ice for 30 min. Collecting supernatant by centrifugation. The same amount of protein was separated by SDS-PAGE and transferred to PVDF membrane (GE Healthcare, Amersham, UK). The blotted membrane incubated with the primary antibodies and allowed to react for an additional 16 h at 4 °C. All antibodies obtain from Cell Signalling Technology, Boston, MA. The membranes incubated with a 1:5000 dilutions of HRP-conjugated secondary antibody (Beyotime Biotech, Nantong, China) for 1 h at room temperature. Signals were visualised using ECL system (Thermo Fisher Scientific, Waltham, MA).

The nature of data set [2]: Cell viability assay (MTT), LO2. It is filed as cell-based. Conditions: human, LO2 cells, read-out: Cytotoxicity IC50 with LO2.
Data set [3] can be described thus: Human liver microsomes stability assay in vitro. It is filed as in vitro ADME. On the procedure:
The livers were homogenised initially in a Tris (0.1 M)/KCl (0.1 M)/EDTA (1 mM)/butylated sodium hydroxytoluene (BHT) (0.02 mM) buffer. Add 1.5 µL control/test compound B12 working solution to 238.5 µL liver microsome working solution, gently mix. Pre-incubate at 37 °C for 5 min. Start the reaction by adding 60 µL NADPH working solution. Mix by pipetting up and down. At each time point: 0, 5, 15, 30 and 60 min, remove 30 µL of reaction mixture to 300 µL of quenching solution. Vortex vigorously for ∼1 min and centrifuge at 4000 rpm at 4 °C for 15 min. Remove 100 µL of the supernatant and mixed with 100 µL distilled water for LC-MS/MS analysis.
Background: Microsomes from liver hold many membrane-bound enzymes, among them those of drug oxidation.

The subject of data set [4] is p38. As to the kind of experiment: Western blot, SUV-induced p38 phosphorylation in HaCaT cells. To be noted: SUV (40 kJ/m^2) 30 min. It is filed as cell-based, human. On the procedure:
as §1

For data set [5], the target named is T1, TOPK (Homo sapiens, UniProt Q96KB5).
T1 construct: endogenous in cells
T1 sequence (Q96KB5 1-322): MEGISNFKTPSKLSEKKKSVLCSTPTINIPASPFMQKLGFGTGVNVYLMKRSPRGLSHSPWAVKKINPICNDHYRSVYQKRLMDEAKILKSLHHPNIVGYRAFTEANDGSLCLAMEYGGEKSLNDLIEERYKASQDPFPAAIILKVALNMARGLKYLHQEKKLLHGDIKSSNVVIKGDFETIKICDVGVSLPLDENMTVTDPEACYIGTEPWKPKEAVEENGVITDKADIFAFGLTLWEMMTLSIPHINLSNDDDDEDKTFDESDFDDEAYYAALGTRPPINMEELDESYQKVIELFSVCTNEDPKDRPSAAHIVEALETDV
As to the kind of experiment: Cellular thermal shift assay (CETSA). It is filed as binding. Conditions: especially at 57 °C. The source says:
Based on the ligand-induced thermal stabilisation of target proteins, the cellular thermal shift assay (CETSA) assay is likely to validate drug binding, off-target effects or drug resistance in cell lines. To further detect the direct binding of compound B12 with TOPK protein, CETSA was used in this study.

A further data set relates to STAT3. The data set can be described thus: Western blot, SUV-induced STAT3 phosphorylation in HaCaT cells. It is filed as cell-based, human. To be noted: 2.5 μM to 10 μM, 6 h before 40 KJ/m^2 SUV. As for the experimental part: as §1
Data set [6] concerns IMQ-induced psoriasis mouse model. As to the kind of experiment: IMQ-induced psoriasis-like skin inflammation mouse model. It is filed as in vivo, BALB/c mice.
Description: During treatment for 7 days, to score the severity of inflammation of mouse skin, an objective scoring system was developed based on the clinical psoriasis area and severity index. Erythema, scaling, and thickening were scored independently from 0 to 4 as follows: 0, none; 1, slight; 2, moderate; 3, marked; 4, very marked and weight loss. The cumulative score (erythema plus scaling plus thickening) served to indicate the severity of inflammation (scale 0 ∼ 12). On the 8th day, the mice were taken eyeball blood and back skin. One-half of the samples were immediately fixed in 4% paraformaldehyde and for haematoxylin and eosin (H&E) staining. The other samples were put in a −80 °C freezer. Before used, they were placed at room temperature for 30 min. After that, they were added 1 × PBS proportionally, homogenised and centrifuged. The supernatant was collected and used for ELISA assay and Western blot assay. […] The histological image was obtained using 3[sequence]’s Slide Converter (3[sequence], Hungary).
Data set [7] has as its system JNK. The data set can be described thus: Western blot, LPS-induced JNK phosphorylation in RAW264.7. It is filed as cell-based, mouse. Conditions: LPS (0.5 μg/mL) 30 min. On the procedure:
as §2

The nature of data set [8]: Cell viability assay (MTT), RAW264.7. It is filed as cell-based, mouse. Conditions: mouse, RAW264.7 cells, read-out: Cytotoxicity IC50 with RAW264.7. On the procedure:
(§3) RAW264.7 cells (1 × 10^4 cells/well) were seeded into 96-well plate and used for experiments after 24 h. Compounds (4 µM, 20 µM and 100 µM) treated cell for 24 h. Forty microliters of MTT solution (5 mg/mL, Sigma-Aldrich) was then added and incubated for an additional 4 h. After 4 h, cell culture supernatants were removed and DMSO (150 µL) was added into per well for dissolving the resulting crystals. Shaking about 1 0 ∼ 15 min and the absorbance at 492 nm was measured by a microplate reader (MQX200, Bio-Tek, Winooski, VT). At least three independent experiments were performed for the determination of IC50 values, which were shown as mean ± SD. All experimental data were analysed by using GraphPad Prism software, version 8.0 (GraphPad Inc.).

The next data set relates to RAW264.7 cells. The data set can be described thus: Cell viability assay (MTT), RAW264.7. It is filed as cell-based, mouse. Conditions: 24 h, read-out: Cytotoxicity IC50 with RAW264.7. As for the experimental part:
as §3

The next data set concerns NF-κB p65. The data set can be described thus: Western blot, LPS-induced NF-κB p65 translocation in RAW264.7. It is filed as cell-based, mouse. To be noted: LPS (0.5 μg/mL) 30 min. As for the experimental part:
as §2

The subject of data set [9] is P38. As to the kind of experiment: Western blot, LPS-induced p38 phosphorylation in RAW264.7. It is filed as cell-based, mouse. Conditions: LPS (0.5 μg/mL) 30 min. As for the experimental part:
as §2

Data set [10] relates to LPS-induced nitric oxide production in RAW264.7 cells. The data set can be described thus: LPS-induced NO production, Griess Reagent assay. It is filed as cell-based, mouse. To be noted: for IC50 / inhibition at 10 µM: Mus musculus; for IC50: LPS (0.5 μg/mL) 24 h; for inhibition at 10 µM: compounds 10 μM, 1 h, then LPS (0.5 μg/mL) 24 h, read-out: Inhibition rate±SD (%) against NO production. As for the experimental part:
RAW264.7 cells (7 × 10^4 cells/well) were seeded into 48-well plate and used for experiments after 24 h. […] After 24 h collect cell supernatant, NO production was measured using Griess Reagent assay (Beyotime). Griess reagent were mixed at a ratio of 1:1, and reacted at room temperature for 15 min. Measurement of absorbance at […] with enzyme reader. At least three independent experiments were performed for the determination of IC50 values, which were shown as mean ± SD. All experimental data were analysed by using GraphPad Prism software, version 8.0 (GraphPad Inc.).
In general terms: Griess reagent forms a coloured azo dye with nitrite.

In the next data set the test system is LPS-induced HaCaT cells. The data set can be described thus: Hyperproliferation assay, LPS-stimulated HaCaT cells (MTT). It is filed as cell-based, human. Conditions: pre-treated 6 h, LPS 24 h. On the procedure: HaCaT cells were seeded in 96-well plates and cultured at 37 °C in a humidified 5% CO2 atmosphere. When the cell confluency reached 60–70%, HaCaT cells were then starved in serum-free DMEM for 12 h before stimulated by 100 ng/mL LPS for 24 h to mimic hyperproliferative psoriatic keratinocytes. The cell viability was measured by MTT method. Results are expressed as the percentage survival of cells in the cell treated group and the untreated control group (without the tested compound and LPS).

Another data set deals with COX-2. The data set can be described thus: Western blot of COX-2 in LPS-stimulated RAW264.7 cells. It is filed as cell-based, mouse. Conditions: 2.5, 5, 10 µM, 1 h, LPS 24 h. As for the experimental part:
as §2

Data set [11] deals with T1, TOPK. Also on record: method as in PMID 17276892. To be noted: 100 µM; cited from earlier work.
Data set [12] deals with T1, TOPK. Also on record: method as in PMID 28404919. To be noted: time- and dose-dependent, in vitro and in vivo; cited from earlier work.
The target of data set [13] is T1, TOPK. Also on record: method as in earlier work. Conditions: ref 16/17; cited from earlier work.

As usually defined, the IC50 is the concentration needed to halve the response being measured. A word on the half-life: it is how long it takes for the measured level to halve. One may read the microsomal CLint as the rate of metabolic loss divided by the concentration. A high value points to rapid turnover. As usually defined, the inhibition is the relative decrease from the control value, in per cent.

Turning to `COc1cc(O)c(C(C)=O)cc1NC(=O)Nc1cccc(C(F)(F)F)c1` [Compound B12, 1–(5-acetyl-4-hydroxy-2-methoxyphenyl)-3–(3-(trifluoromethyl)phenyl) urea], in the data set on JNK [1], the “Phosphorylation of JNK, SUV-induced” value is on record as “inhibited”. Further, in the data set on γ-H2AX, the “Level of phosphorylated γ-H2AX” value is given as “gradually decreased”. In the data set with iNOS, the “Expression of iNOS” value was “inhibited by compound B12 in a dose-dependent manner”. Further, the IC50 at 24 h is greater than 100 µM in data set [2] and greater than 50 µM in [8]. For the same compound, the CLhep in data set [3] (human) was found to be 8.5 mL/min/kg. The half-life in data set [3] (human liver microsomes) was 1.85 h. The intrinsic metabolic clearance (microsomal CLint) in data set [3] (human liver microsomes) amounted to 12.5 µL/min/mg. Besides, in the data set on p38 [4], the “Phosphorylation of p38, SUV-induced” value was “inhibited”. For the same compound, the “Thermal stability of TOPK (CETSA)” value on TOPK [5] is on record as “stabilised”. The “Level of phosphorylated STAT3” value in the data set with STAT3 is reported as “gradually decreased”. Further, the “Pathological reduction, H&E of skin tissue” value in [6] (20 mg/kg, intragastric once a day, 7 days) is on record as “moderate pathological reduction”; in data set [6] (40 mg/kg, intragastric once a day, 7 days) it was “high pathological reduction”. Besides, the “Expression of related proteins (p-STAT3, p-TOPK, TOPK, p-p38, p-JNKs, PCNA, p-H2AX) in mouse skin tissues” value in [6] (20 and 40 mg/kg, Western blot) is “decreased significantly”. Besides, in [6] (B12 20 and 40 mg/kg, Dex 20 mg/kg, intragastric once a day, 7 days), the “Experimental symptoms and PASI score” value was “significantly attenuated experimental symptoms and PASI score in a dose-dependent manner”. Also, in the data set with JNK [7], the JNK protein phosphorylation entry is given as “inhibited”. Also, the IC50 with RAW264.7 cells is greater than 100 µM; in [10], 2.14 µM. Also, the “NF-κB p65 translocation into the nucleus” value with NF-κB p65 was “inhibited”. Besides, the P38 protein phosphorylation result with P38 [9] was “inhibited”. Further, the inhibition at 10 µM in data set [10] was 95.5 ± 3.26%. Also, the “Excessive proliferation of LPS-induced HaCaT cells” value with LPS-induced HaCaT cells is reported as “inhibited excessive proliferation of LPS-induced HaCaT cells in a dose dependent manner”. For the same compound, in the data set on COX-2, the “Expression of COX-2” value is recorded as “inhibited by compound B12 in a dose-dependent manner”.

On to `COc1ccc(C(C)=O)c(O)c1` [Pae, paeonol], for which, on TOPK [11], the “Expression of TOPK” value is on record as “inhibit the expression of TOPK”. In [2], the IC50 at 24 h is greater than 100 µM. Also, the “Phosphorylation levels of p38, JNKs, MSK1 and histone H2AX” value at TOPK [12] is on record as “suppressed”. Moreover, the “Affinity for TOPK (MST)” value on TOPK [13] is “confirmed the affinity of paeonol for TOPK”. Besides, the IC50 at 24 h in [8] is greater than 100 µM. Besides, the “Inhibitory activity on LPS-induced NO secretion, in words” value in [10] (10 µM) was “weak potencies”. In addition, in data set [10], the IC50 was greater than 10 µM and the inhibition at 10 µM was 18.4 ± 1.84%. For the same compound, the “Excessive proliferation of LPS-induced HaCaT cells” value in the data set on LPS-induced HaCaT cells was “did not have this effect”.
